Data: ChEMBL document CHEMBL5321210, “N-adamantyl-anthranil amide derivatives: New selective ligands for the cannabinoid receptor subtype 2 (CB2R)” (Eur J Med Chem, 2023)
Activity calls are given as the source filed them. The calls are words filed in the database; no cut-off is given here.

Experiments:
THP-1 [1] = experiment: Antiinflammatory activity in human THP-1 monocytes assessed as increase in IL-4 production at 10 uM incubated for 24 hrs in the presence of N-(adamantan-1-yl)-4-(pentylamino)-[1,1'-biphenyl]-3-carboxamide by ELISA coupled qRT-PCR analysis; format: functional, cell-based
THP-1 [2] = experiment: Antiinflammatory activity against LPS-activated human THP-1 monocytes assessed as decrease in IL-6 production at 10 uM incubated for 24 hrs in the presence of N-(adamantan-1-yl)-4-(pentylamino)-[1,1'-biphenyl]-3-carboxamide by ELISA coupled qRT-PCR analysis; format: functional, cell-based
THP-1 [3] = experiment: Antiinflammatory activity in PMA-differentiated human THP-1 macrophages assessed as increase in IL-10 production at 10 uM incubated for 24 hrs in the presence of JTE907 by ELISA coupled qRT-PCR analysis; format: functional, cell-based
THP-1 [4] = experiment: Antiinflammatory activity in PMA-differentiated human THP-1 monocytes assessed as decrease in IL-1beta production at 10 uM incubated for 24 hrs in the presence of N-(adamantan-1-yl)-4-(pentylamino)-[1,1'-biphenyl]-3-carboxamide by ELISA coupled qRT-PCR analysis; format: functional, cell-based
THP-1 [5] = experiment: Antiinflammatory activity in PMA-differentiated human THP-1 macrophages assessed as increase in IL-4 production at 10 uM incubated for 24 hrs by ELISA coupled qRT-PCR analysis; format: functional, cell-based
THP-1 [6] = experiment: Antiinflammatory activity in human THP-1 monocytes assessed as increase in IL-10 production at 10 uM incubated for 24 hrs by ELISA coupled qRT-PCR analysis; format: functional, cell-based
THP-1 [7] = experiment: Antiinflammatory activity against LPS-activated human THP-1 monocytes assessed as decrease in IL-1beta production at 10 uM incubated for 24 hrs in the presence of N-(adamantan-1-yl)-4-(pentylamino)-[1,1'-biphenyl]-3-carboxamide by ELISA coupled qRT-PCR analysis; format: functional, cell-based
THP-1 [8] = experiment: Antiinflammatory activity against LPS-activated PMA-differentiated human THP-1 monocytes assessed as decrease in IL-6 production at 10 uM incubated for 24 hrs in the presence of N-(adamantan-1-yl)-4-(pentylamino)-[1,1'-biphenyl]-3-carboxamide by ELISA coupled qRT-PCR analysis; format: functional, cell-based
THP-1 [9] = experiment: Antiinflammatory activity against LPS-activated human THP-1 monocytes assessed as decrease in IFN-gamma production at 10 uM incubated for 24 hrs in the presence of N-(adamantan-1-yl)-4-(pentylamino)-[1,1'-biphenyl]-3-carboxamide by ELISA coupled qRT-PCR analysis; format: functional, cell-based
THP-1 [10] = experiment: Antiinflammatory activity against LPS-activated PMA-differentiated human THP-1 macrophages assessed as decrease in TNF-alpha production at 10 uM incubated for 24 hrs by ELISA coupled qRT-PCR analysis relative to control; format: functional; design: scale not given: the % may be the effect or the level left
THP-1 [11] = experiment: Antiinflammatory activity in PMA-differentiated human THP-1 monocytes assessed as decrease in IFN-gamma production at 10 uM incubated for 24 hrs in the presence of N-(adamantan-1-yl)-4-(pentylamino)-[1,1'-biphenyl]-3-carboxamide by ELISA coupled qRT-PCR analysis; format: functional, cell-based
THP-1 [12] = experiment: Antiinflammatory activity in PMA-differentiated human THP-1 macrophages assessed as reduction in IFN-gamma production at 10 uM incubated for 24 hrs by ELISA coupled qRT-PCR analysis relative to control; format: functional; design: scale not given: the % may be the effect or the level left
THP-1 [13] = experiment: Antiinflammatory activity against LPS-activated PMA-differentiated human THP-1 macrophages assessed as decrease in IL-1beta production at 10 uM incubated for 24 hrs by ELISA coupled qRT-PCR analysis relative to control; format: functional; design: scale not given: the % may be the effect or the level left
THP-1 [14] = experiment: Antiinflammatory activity in PMA-differentiated human THP-1 macrophages assessed as increase in IL-4 production at 10 uM incubated for 24 hrs in the presence of JTE907 by ELISA coupled qRT-PCR analysis; format: functional, cell-based
THP-1 [15] = experiment: Antiinflammatory activity in LPS-activated PMA-differentiated human THP-1 macrophages assessed as decrease in IFN-gamma production at 10 uM incubated for 24 hrs in the presence of JTE907 by ELISA coupled qRT-PCR analysis; format: functional, cell-based
THP-1 [16] = experiment: Antiinflammatory activity against LPS-activated PMA-differentiated human THP-1 monocytes assessed as decrease in TNF-alpha production at 10 uM incubated for 24 hrs in the presence of N-(adamantan-1-yl)-4-(pentylamino)-[1,1'-biphenyl]-3-carboxamide by ELISA coupled qRT-PCR analysis; format: functional, cell-based
THP-1 [17] = experiment: Antiinflammatory activity in LPS-activated PMA-differentiated human THP-1 macrophages assessed as decrease in IL-1beta production at 10 uM incubated for 24 hrs in the presence of JTE907 by ELISA coupled qRT-PCR analysis; format: functional, cell-based
THP-1 [18] = experiment: Antiinflammatory activity in PMA-differentiated human THP-1 macrophages assessed as reduction in TNF-alpha production at 1 to 10 uM incubated for 24 hrs by ELISA coupled qRT-PCR analysis relative to control; format: functional; design: scale not given: the % may be the effect or the level left; details: dose 1-10 µM
THP-1 [19] = experiment: Antiinflammatory against LPS-activated human THP-1 monocytes assessed as increase in IL-4 production at 1 to 10 uM incubated for 24 hrs in the presence of JTE907 by ELISA coupled qRT-PCR analysis; format: functional, cell-based; details: dose 1-10 µM
THP-1 [20] = experiment: Antiinflammatory activity against LPS-activated PMA-differentiated human THP-1 macrophages assessed as increase in IL-4 production at 1 to 10 uM incubated for 24 hrs by ELISA coupled qRT-PCR analysis; format: functional, cell-based; details: dose 1-10 µM
THP-1 [21] = experiment: Antiinflammatory activity in LPS-activated PMA-differentiated human THP-1 macrophages assessed as increase in IL-10 production at 1 to 10 uM incubated for 24 hrs in the presence of JTE907 by ELISA coupled qRT-PCR analysis; format: functional, cell-based; details: dose 1-10 µM
THP-1 [22] = experiment: Antiinflammatory activity in LPS-activated PMA-differentiated human THP-1 macrophages assessed as decrease in TNF-alpha production at 1 to 10 uM incubated for 24 hrs in the presence of JTE907 by ELISA coupled qRT-PCR analysis; format: functional, cell-based; details: dose 1-10 µM
THP-1 [23] = experiment: Antiinflammatory activity in PMA-differentiated human THP-1 macrophages assessed as decrease in IFN-gamma production at 1 to 10 uM incubated for 24 hrs in the presence of JTE907 by ELISA coupled qRT-PCR analysis; format: functional, cell-based; details: dose 1-10 µM
THP-1 [24] = experiment: Antiinflammatory activity in PMA-differentiated human THP-1 macrophages assessed as decrease in TNF-alpha production at 1 to 10 uM incubated for 24 hrs in the presence of JTE907 by ELISA coupled qRT-PCR analysis; format: functional, cell-based; details: dose 1-10 µM
THP-1 [25] = experiment: Antiinflammatory activity in LPS-activated PMA-differentiated human THP-1 macrophages assessed as decrease in IL-6 production at 1 to 10 uM incubated for 24 hrs in the presence of JTE907 by ELISA coupled qRT-PCR analysis; format: functional, cell-based; details: dose 1-10 µM
THP-1 [26] = experiment: Antiinflammatory activity in human THP-1 monocytes assessed as decrease in TNF-alpha production incubated for 24 hrs by ELISA coupled qRT-PCR analysis; format: functional, cell-based; details: dose 1-10 µM
Cannabinoid receptor 2 = Cannabinoid receptor 2 (Homo sapiens, UniProt P34972); experiment: Displacement of [3H]-CP55940 from human CB2 receptor expressed in HEK293 cell membrane assessed as inhibition constant incubated for 90 mins by radioligand competition binding assay; format: cell membranes
Cannabinoid receptor 2, sequence (P34972 whole entry): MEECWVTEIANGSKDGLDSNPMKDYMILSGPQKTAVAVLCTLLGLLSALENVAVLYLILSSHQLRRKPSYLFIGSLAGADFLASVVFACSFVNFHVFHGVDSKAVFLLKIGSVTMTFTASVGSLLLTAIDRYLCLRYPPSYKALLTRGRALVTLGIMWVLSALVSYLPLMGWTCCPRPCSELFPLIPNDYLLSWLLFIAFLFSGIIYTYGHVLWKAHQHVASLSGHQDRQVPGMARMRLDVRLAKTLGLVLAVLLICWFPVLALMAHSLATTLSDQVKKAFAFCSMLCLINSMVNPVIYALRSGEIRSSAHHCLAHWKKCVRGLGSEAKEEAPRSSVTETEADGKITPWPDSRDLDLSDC

SMILES: O=C(NC1CCCCC1)c1cn(CCN2CCOCC2)c2cc(Cl)ccc2c1=O
- Activity (THP-1 [1]): inactive
- Activity (THP-1 [2]): inactive
- Activity (THP-1 [3]): inactive
- Activity (THP-1 [4]): inactive
- Activity (THP-1 [5]): Active
- Activity (THP-1 [6]): Active
- Activity (THP-1 [7]): inactive
- Activity (THP-1 [8]): inactive
- Activity (THP-1 [9]): inactive
- Activity (THP-1 [10]): 70%
- Activity (THP-1 [11]): inactive
- Activity (THP-1 [12]): 50%
- Activity (THP-1 [13]): 70%
- Activity (THP-1 [14]): inactive
- Activity (THP-1 [15]): inactive
- Activity (THP-1 [16]): inactive
- Activity (THP-1 [17]): inactive

SMILES: CCCCCNc1ccccc1C(=O)NC12CC3CC(CC(C3)C1)C2
- Activity (THP-1 [18]): 50%
- Activity (THP-1 [19]): inactive
- Activity (THP-1 [20]): Active
- Activity (THP-1 [21]): inactive
- Activity (THP-1 [22]): inactive
- Activity (THP-1 [23]): inactive
- Activity (THP-1 [24]): inactive
- Activity (THP-1 [25]): inactive
- Activity (THP-1 [26]): Dose-Dependent Effect
- Ki (Cannabinoid receptor 2): 55.7 nM
